Test results as given in patent US11760744B2, “Fused ring compounds” (Genentech, Inc., priority 2018, dated 2023).
pEC50, pIC50: −log10 of the molar value.

Experiments:
K-Ras G12C [1] = biological target: T1, K-Ras G12C (Homo sapiens, UniProt P01116, G12C); test: Western blot assay for in cell alkylation of K-Ras G12C (HCC1171 cells); assay type: cell-based; parameters: endogenous in cells; host or cells: HCC1171; conditions: 18 hours at 37° C., 7 point dose response
Experimental: Western Blot Assay for in Cell Alkylation of K-Ras G12C
HCC1171 cells were maintained in RPMI1640 supplemented with 10% FBS. Cells were plated in a 96-well plate at 20,000 cells/well and the following day compounds were added to the cells. After 18 hours at 37° C., cells were lysed in RIPA buffer (Sigma R0278) with 0.5% SDS and protease/phosphatase inhibitor cocktail. After through mixing to enable complete lysis, the lysates were cleared by centrifugation before 20 μl was transferred from each well and combined with loading buffer and reducing agent. After heating for 10 minutes at 95° C., 15 μl of each sample was loaded onto a 4-20% Tris-Glycine gel and electrophoresed at 110V for 165 minutes in SDS-PAGE running buffer. Gels were transferred to a nitrocellulose membrane, blocked for 1 hour and stained overnight at 4° C. with primary antibody against K-Ras (polyclonal Proteintech 12063-1-AP). The membrane was then washed thoroughly and counterstained with anti-rabbit IRDye 800CW (LI-COR 926-32211) for one hour at room temperature. After final washes, the membrane was imaged on a LI-COR Odyssey CLx at medium resolution. Alkylated K-Ras was visible by an electrophoretic shift from unmodified K-Ras. To quantify this affect, the LICOR software was used to draw a rectangle over alkylated and unalkylated bands for each well and measured the total fluorescent intensity (FI) in each of these bands. The following formula was then used to calculate % alkylation: FI(alkylated)/(FI(alkylated)+FI(unalkylated))*100 for each well.
A 7 point dose response curve was used to determine the IC50 for each compound. Cell alkylation data are presented below in Table 2.
Target sequence in this assay (P01116 1-188 isoform P01116-2 G12C): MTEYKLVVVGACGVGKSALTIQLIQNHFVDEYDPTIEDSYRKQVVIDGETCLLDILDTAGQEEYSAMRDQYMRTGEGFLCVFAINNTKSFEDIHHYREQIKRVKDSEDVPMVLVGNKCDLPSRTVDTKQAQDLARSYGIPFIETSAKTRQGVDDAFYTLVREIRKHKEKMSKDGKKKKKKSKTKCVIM

K-Ras G12C [2] = biological target: T1, K-Ras G12C; test: K-Ras G12C, SOS1, Raf RBD HTRF assay for inhibition of GTP exchange; assay type: biochemical; parameters: K-Ras G12C (residues 2-188) and SOS1 (residues 564-1049) had N-terminal 6-His; made in house; host or cells: E. coli; conditions: 18 hours preincubation with K-Ras G12C at room temperature; SOS1-mediated GTP exchange
Experimental: K-Ras G12C, SOS1, Raf RBD Homogeneous Time Resolved Fluorescence (HTRF) Assay for Inhibition of GTP Exchange
After 18 hours at room temperature, the SOS1 GTP exchange factor (1.67 nM during exchange, 1.25 nM final) was added to initiate nucleotide exchange to GTP (200 μM during exchange, 150 μM final). The level of GTP exchange was assessed by addition of a Ras binding domain derived from C-Raf and the HTRF detection antibodies Tb-anti-FLAG and D2-anti-his (Cis-Bio) at 50 nM, 1 nM and 12.5 nM, respectively. After 2 hours, the ratio of 665 nm to 615 nm emission with 320 nm excitation was measured on an Envision plate reader (Perkin Elmer).
The final reaction volume was 20 μl in a ProxiPlate-384F Plus (Perkin Elmer), in buffer containing 20 mM HEPES, 150 mM NaCl, 1 mM MgCl2, 0.1% BSA, 0.03% Tween-20 and 1 mM DTT. […] HTRF data are presented below in Table 2.
Target sequence in this assay (P01116 2-188 isoform P01116-2 G12C): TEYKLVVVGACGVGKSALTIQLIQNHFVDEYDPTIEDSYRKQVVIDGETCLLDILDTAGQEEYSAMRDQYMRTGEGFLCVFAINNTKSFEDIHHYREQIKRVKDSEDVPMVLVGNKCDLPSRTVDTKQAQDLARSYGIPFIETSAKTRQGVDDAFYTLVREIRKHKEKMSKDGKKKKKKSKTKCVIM

| Structure (SMILES) | pEC50 (K-Ras G12C [1]) | pIC50 (K-Ras G12C [2]) |
| --- | --- | --- |
| C=C(F)C(=O)N1CCN(c2nc(OC[C@@H]3CCCN3C)nc3c2CC[C@@H](c2cc(O)cc4ccccc24)C3)C[C@H]1CC#N (single isomer, unassigned) [Example 61d] | 7.96 | 7.55 |
| CN1CCC[C@H]1COc1nc2c(c(N3CCN(C(=O)/C=C/CF)[C@@H](CC#N)C3)n1)CC[C@@H](c1cc(O)cc3ccccc13)C2 (single isomer, unassigned) [Example 62e] | 6.35 | 6.18 |
| C=CC(=O)N1C[C@H](C)N(c2nc(OC[C@@H]3CCCN3C)nc3c2CCC(c2cc(O)cc4ccccc24)C3)[C@@H](C)C1 (stereo partly drawn) [Example 56a, 1-((3S,5S)-4-(7-(3-hydroxynaphthalen-1-yl)-2-(((S)-1-methylpyrrolidin-2-yl)methoxy)-5,6,7,8-tetrahydroquinazolin-4-yl)-3,5-dimethylpiperazin-1-yl)prop-2-en-1-one] | 6.21 | 7.14 |
| C=CC(=O)N1C[C@H](C)N(c2nc(OC[C@@H]3CCCN3C)nc3c2C[C@H](C)[C@@H](c2cc(O)cc4ccccc24)C3)[C@@H](C)C1 (single isomer, unassigned) [Example 32b] | 6.04 | 7.25 |
| C=CC(=O)N1CCN(c2nc(OC[C@@H]3CCCN3C)nc3c2CC[C@H](c2cc(O)cc4ccccc24)C3)C[C@@H]1CC#N (single isomer, unassigned) [Example 58b] | 5.72 | 6.89 |
| C=C(F)C(=O)N1CCN(c2nc(OC[C@@H]3CCCN3C)nc3c2CCC(c2cccc4ccccc24)C3)CC1CC#N (single isomer, unassigned) [Example 47a] | 6.28 | 6.82 |
| C=CC(=O)N1CCN(c2nc(OC[C@@H]3CCCN3C)nc3c2C[C@H](C)[C@@H](c2nc(N)cc(C)c2C(F)(F)F)C3)[C@@H](C)C1 (single isomer, unassigned) [Example 21a] | 5.64 | 5.96 |
| C=CC(=O)N1CCN(c2nc(OC[C@@H]3C[C@@H](F)CN3C)nc3c2C[C@H](CC)[C@@H](c2c(F)c(N)cc(C)c2C(F)(F)F)C3)[C@@H](C)C1 (single isomer, unassigned) [Example 37b] | 6.00 | 5.66 |
| CN1CCC[C@H]1COc1nc2c(c(N3CCN(C(=O)/C=C/CF)[C@@H](CC#N)C3)n1)CC[C@H](c1cc(O)cc3ccccc13)C2 (single isomer, unassigned) [Example 62c] | 6.00 | 7.14 |
| C=CC(=O)N1CCN(c2ncnc3c2C[C@@H](C)[C@H](c2c(C)ccc4[nH]ncc24)C3)CC1 (single isomer, unassigned) [Example 15a] | 6.37 | 7.17 |
| C=CC(=O)N1C[C@H](C)N(c2nc(OC[C@@H]3CCCN3C)nc3c2C[C@@H](C)[C@H](c2cc(O)cc4ccccc24)C3)[C@@H](C)C1 (single isomer, unassigned) [Example 32a] | 6.92 | > 8.00 |
| CNC/C=C/C(=O)N1CCN(c2ncnc3c2C[C@@H](C)[C@H](c2c(C)ccc4[nH]ncc24)C3)CC1 (single isomer, unassigned) [Example 19a] | 4.92 | 6.03 |
| C#CC[C@H]1CN(c2nc(OC[C@@H]3CCCN3C)nc3c2C[C@@H](C)[C@H](c2cccc4c2CCC4)C3)CCN1C(=O)C=C (single isomer, unassigned) [Example 40a] | 7.00 | > 8.00 |
| C=CC(=O)N1CCN(c2ncnc3c2CC[C@H](c2nc(N)cc4ccccc24)C3)CC1 (single isomer, unassigned) [Example 3b] | 5.26 | 6.15 |
| C=CC(=O)N1CCN(c2ncnc3c2C[C@H](C)[C@@H](c2c(C)ccc4[nH]ncc24)C3)CC1 (single isomer, unassigned) [Example 15b] | 4.52 | 5.07 |
| C=CC(=O)N1CCN(c2nc(OC[C@@H]3CCCN3C)nc3c2C[C@H](C)[C@@H](c2c(C(F)(F)F)ccc(N)c2F)C3)[C@@H](C)C1 (single isomer, unassigned) [Example 23a] | 6.00 | 6.14 |
| C=CC(=O)N1CCN(c2nc(OC[C@@H]3CCCN3C)nc3c2CCC(c2cc(O)cc4ccccc24)C3)[C@@H](CO)C1 (single isomer, unassigned) [Example 29a] | 5.03 | 6.28 |
| C=C(F)C(=O)N1CCN(c2nc(OC[C@@H]3CCCN3C)nc3c2CCC(c2cc(O)cc4ccccc24)C3)CC1CC#N (mixture of isomers) [Example 61a, 2-(1-(2-fluoroacryloyl)-4-(7-(3-hydroxynaphthalen-1-yl)-2-(((S)-1-methylpyrrolidin-2-yl)methoxy)-5,6,7,8-tetrahydroquinazolin-4-yl)piperazin-2-yl)acetonitrile] | 7.80 | 7.42 |
| C=CC(=O)N1CCN(c2ncnc3c2CC[C@@H](c2cncc4ccccc24)C3)CC1 (single isomer, unassigned) [Example 44a] | 6.00 | < 4.30 |
| C=CC(=O)N1CCN(c2ncnc3c2CC[C@H](c2nc(N)cc(C)c2C(F)(F)F)C3)CC1 [Example 26a, (S)-1-(4-(7-(6-amino-4-methyl-3-(trifluoromethyl)pyridin-2-yl)-5,6,7,8-tetrahydroquinazolin-4-yl)piperazin-1-yl)prop-2-en-1-one] | 5.92 | 6.74 |
| C=CC(=O)N1CCC(C#N)(c2nc(OC[C@@H]3CCCN3C)nc3c2CCC(c2cc(O)cc4ccccc24)C3)CC1 (stereo partly drawn) [Example 7a, 4-[7-(3-hydroxy-1-naphthyl)-2-[[(2S)-1-methylpyrrolidin-2-yl]methoxy]-5,6,7,8-tetrahydroquinazolin-4-yl]-1-prop-2-enoyl-piperidine-4-carbonitrile] | 5.60 | 7.06 |
| C=CC(=O)N1CCN(c2nc(OC[C@@H]3CCCN3C)nc3c2CC[C@H](c2cc(O)cc4ccccc24)C3)C[C@H]1CC#N (single isomer, unassigned) [Example 58c] | 6.47 | 7.54 |
| C=CC(=O)N1CCN(c2nc(OC[C@@H]3CCCN3C)nc3c2C[C@H](C)[C@@H](c2c(F)c(N)cc(C)c2C(F)(F)F)C3)[C@@H](C)C1 (single isomer, unassigned) [Example 12a] | 5.96 | 6.21 |
| C=CC(=O)N1CCN(c2nc(OC[C@@H]3CCCN3C)nc3c2C[C@@H](C)[C@H](c2c(C)c(C)cc(N)c2F)C3)[C@@H](C)C1 (single isomer, unassigned) [Example 11b] | 7.33 | > 8.00 |
| C=CC(=O)N1CCN(c2nc(OC[C@H]3COC(=O)N3C)nc3c2CC[C@H](c2cc(O)cc4ccccc24)C3)[C@@H](C)C1 (single isomer, unassigned) [Example 57d] | 6.06 | 7.35 |
| C=C(F)C(=O)N1CCN(c2nc(OC[C@@H]3CCCN3C)nc3c2CC(C)C(c2c(F)c(N)cc(C)c2C(F)(F)F)C3)CC1CC#N (single isomer, unassigned) [Example 34a] | < 5.52 | 5.05 |
| C=C(F)C(=O)N1CCN(c2nc(OC[C@@H]3CCCN3C)nc3c2CC[C@H](c2cc(O)cc4ccccc24)C3)C[C@@H]1CC#N (single isomer, unassigned) [Example 61c] | 5.74 | 7.08 |
| C=C(F)C(=O)N1CCN(c2nc(OC[C@@H]3CCCN3C)nc3c2CC[C@H](c2cc(O)cc4ccccc24)C3)C[C@H]1CC#N (single isomer, unassigned) [Example 61b] | 5.55 | 6.19 |
| C=CC(=O)N1CCN(c2nc(OC[C@@H]3CCCN3C)nc3c2CCC(c2cc(O)cc4ccccc24)C3)CC1 (stereo partly drawn) [Example 49a, 1-[4-[7-(3-hydroxy-1-naphthyl)-2-[[(2S)-1-methylpyrrolidin-2-yl]methoxy]-5,6,7,8-tetrahydroquinazolin-4-yl]piperazin-1-yl]prop-2-en-1-one] | 6.77 | 7.64 |
| COc1ccc(CN(Cc2ccc(OC)cc2)c2cc(C)c(I)c([C@H]3Cc4nc(OC[C@@H]5CCCN5C)nc(N5CCN(C(=O)OC(C)(C)C)C[C@@H]5C)c4C[C@@H]3C)c2F)cc1 (single isomer, unassigned) [Example 14b] | 6.00 | < 4.30 |
